Experimental data taken from US7838498B2, “Benzylic glycoside derivatives and methods of use” (Theracos, Inc., priority 2007, dated 2010).

Tests used:
[1] = biological target: T1, human SGLT1 (Homo sapiens, UniProt P13866); assay: Methyl-α-D-[U-14C]glucopyranoside uptake assay, COS-7 cells expressing human SGLT1; type: cell-based; details: COS-7 cells expressing human SGLT1, 2 h incubation
T1 construct: Full-length human SGLT1 cDNA on pDream2.1 expression vector was obtained from GenScript Corporation; host or cells: COS-7 cells (American Type Culture Collection)
T1 sequence (P13866 1-664): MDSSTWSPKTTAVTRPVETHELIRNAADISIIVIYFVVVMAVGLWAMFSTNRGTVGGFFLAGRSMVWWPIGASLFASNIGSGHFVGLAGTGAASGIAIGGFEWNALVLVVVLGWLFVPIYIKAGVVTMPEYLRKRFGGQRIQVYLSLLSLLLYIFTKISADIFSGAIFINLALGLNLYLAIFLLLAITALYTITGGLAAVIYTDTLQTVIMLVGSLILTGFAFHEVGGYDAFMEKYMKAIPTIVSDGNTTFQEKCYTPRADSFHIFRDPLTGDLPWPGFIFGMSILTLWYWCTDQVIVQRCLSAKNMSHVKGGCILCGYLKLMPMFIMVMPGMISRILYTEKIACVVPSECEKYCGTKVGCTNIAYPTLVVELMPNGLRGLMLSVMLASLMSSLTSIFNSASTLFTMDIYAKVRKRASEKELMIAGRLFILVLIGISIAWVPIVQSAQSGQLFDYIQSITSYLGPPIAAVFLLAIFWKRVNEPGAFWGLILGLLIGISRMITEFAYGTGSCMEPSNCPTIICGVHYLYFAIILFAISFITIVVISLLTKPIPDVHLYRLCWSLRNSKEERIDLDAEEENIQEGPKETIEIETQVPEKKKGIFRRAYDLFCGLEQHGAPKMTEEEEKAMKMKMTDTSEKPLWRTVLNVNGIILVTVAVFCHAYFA
Experimental: Full-length human SGLT1 cDNA on pDream2.1 expression vector was obtained from GenScript Corporation and propagated in Escherichia coli strain DH5α using Luria-Bertani (LB) medium containing ampicillin. Plasmid DNA was isolated using the QIAGEN Plasmid Midi Kit (QIAGEN Inc.). […] Transfected cells were stored in DMEM containing 10% dimethyl sulfoxide (DMSO) at −80° C.
(§1) Cells expressing SGLT1 or SGLT2 were seeded on 96-well ScintiPlate scintillating plates (PerkinElmer, Inc.) in DMEM containing 10% FBS (1×10^5 cells per well in 100 μL medium) incubated at 37° C. under 5% CO2 for 48 h prior to the assay. Cells were washed twice with 150 μL of either sodium buffer (137 mM NaCl, 5.4 mM KCl, 2.8 mM CaCl2, 1.2 mM MgCl2, 10 mM tris(hydroxymethyl)aminomethane/N2-hydroxyethylpiperazine-N′-ethanesulfonic acid [Tris/Hepes], pH 7.2) or sodium-free buffer (137 mM N-methyl-glucamine, 5.4 mM KCl, 2.8 mM CaCl2, 1.2 mM MgCl2, 10 mM Tris/Hepes, pH 7.2). Test compound in 50 μL each of sodium or sodium-free buffer containing 40 μCi/L methyl-α-D-[U-^14C]glucopyranoside (Amersham Biosciences/GE Healthcare), either with (symbols in parentheses) or without (symbols without parentheses) 25% human serum, was added per well of a 96-well plate and incubated at 37° C. with shaking for either 2 h (SGLT1 assay) or 1.5 h (SGLT2 assay). Cells were washed twice with 150 μL of wash buffer (137 mM N-methylglucamine, 10 mM Tris/Hepes, pH 7.2) and methyl-α-D-[U-^14C]glucopyranoside uptake was quantitated using a TopCount scintillation counter (PerkinElmer, Inc.). Sodium-dependent glucopyranoside uptake was measured by subtracting the values obtained with sodium-free buffer from those obtained using sodium buffer (average of triplicate determinations).

[2] = biological target: T2, human SGLT2 (Homo sapiens, UniProt P31639); assay: Methyl-α-D-[U-14C]glucopyranoside uptake assay, cells stably expressing human SGLT2; type: cell-based; details: HEK293.ETN cells expressing human SGLT2, 1.5 h incubation
T2 construct: A full-length cDNA clone expressing human SGLT2 (GenScript Corporation) was subcloned
T2 sequence (P31639 1-672): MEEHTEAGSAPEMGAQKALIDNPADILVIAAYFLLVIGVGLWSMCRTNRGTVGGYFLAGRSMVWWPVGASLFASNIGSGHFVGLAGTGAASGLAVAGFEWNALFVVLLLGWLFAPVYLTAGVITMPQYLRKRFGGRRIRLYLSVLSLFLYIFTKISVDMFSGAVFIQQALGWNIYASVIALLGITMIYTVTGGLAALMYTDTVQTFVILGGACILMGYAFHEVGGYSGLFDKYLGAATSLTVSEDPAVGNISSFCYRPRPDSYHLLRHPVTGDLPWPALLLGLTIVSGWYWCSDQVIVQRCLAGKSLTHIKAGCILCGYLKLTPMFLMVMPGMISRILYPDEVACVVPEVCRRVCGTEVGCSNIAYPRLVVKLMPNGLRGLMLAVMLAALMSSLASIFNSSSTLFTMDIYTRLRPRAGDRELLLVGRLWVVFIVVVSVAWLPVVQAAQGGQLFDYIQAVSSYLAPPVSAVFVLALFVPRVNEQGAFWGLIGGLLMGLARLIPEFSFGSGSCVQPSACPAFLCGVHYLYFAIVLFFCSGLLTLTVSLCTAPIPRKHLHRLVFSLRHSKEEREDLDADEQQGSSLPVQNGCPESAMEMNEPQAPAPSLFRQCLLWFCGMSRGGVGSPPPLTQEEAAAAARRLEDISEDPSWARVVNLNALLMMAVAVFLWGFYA
From the text: A full-length cDNA clone expressing human SGLT2 (GenScript Corporation) was subcloned into […] and Not I sites of pEAK15 expression vector. Clones harboring the cDNA inserts were identified by restriction analysis.
Plasmid containing human SGLT2 was linearized with Nsi I and purified by agarose gel electrophoresis. Using Lipofectamine 2000 Transfection Reagent (Invitrogen Corporation), DNA was transfected into HEK293.ETN cells and cultured in Dulbecco's Modified Eagle Medium (DMEM) containing 10% fetal bovine serum (FBS) at 37° C. under 5% CO2 for 24 h. Transfectants were selected in the same growth medium supplemented with puromycin (Invitrogen Corporation) for two weeks. Puromycin-resistant cells were recovered and seeded on a fresh 96-well plate (single cell per well) and cultured in the presence of puromycin until cells became confluent. Puromycin-resistant clones were evaluated for SGLT2 activity in the methyl-α-D-[U-^14C]glucopyranoside uptake assay described below.
as §1

[3] = without human serum (symbols without parentheses)
[4] = with 25% human serum (symbols in parentheses)

SMILES	IC50 [1, 3]	IC50 [2, 3]	IC50 [1, 4]	IC50 [2, 4]
CCc1ccc(Cc2cc([C@@H]3O[C@H](CO)[C@@H](O)[C@H](O)[C@H]3O)c(COCC(F)F)cc2Cl)cc1 [Compound R, (2S,3R,4R,5S,6R)-2-(4-chloro-2-((2,2-difluoroethoxy)methyl)-5-(4-ethylbenzyl)phenyl)-6-(hydroxymethyl)tetrahydro-2H-pyran-3,4,5-triol]	> 10 µM	< 1000 nM	–	–
CC#CCOCc1cc(Cl)c(Cc2ccc(CC)cc2)cc1[C@@H]1O[C@H](CO)[C@@H](O)[C@H](O)[C@H]1O [Compound AX, (2S,3R,4R,5S,6R)-2-(2-((but-2-ynyloxy)methyl)-4-chloro-5-(4-ethylbenzyl)phenyl)-6-(hydroxymethyl)tetrahydro-2H-pyran-3,4,5-triol]	–	–	> 10 µM	< 1000 nM
C#CCOCc1cc(Cl)c(Cc2ccc(OCC)cc2)cc1[C@@H]1O[C@H](COC(C)=O)[C@@H](O)[C@H](O)[C@H]1O [Compound CD, ((2R,3S,4R,5R,6S)-6-(4-chloro-5-(4-ethoxybenzyl)-2-((prop-2-ynyloxy)methyl)phenyl)-3,4,5-trihydroxytetrahydro-2H-pyran-2-yl)methyl acetate]	–	–	> 10 µM	< 1000 nM
C=CCOCc1cc(Cl)c(Cc2ccc(OCC)cc2)cc1[C@@H]1O[C@H](CO)[C@@H](O)[C@H](O)[C@H]1O [Compound AZ, (2S,3R,4R,5S,6R)-2-(2-(allyloxymethyl)-4-chloro-5-(4-ethoxybenzyl)phenyl)-6-(hydroxymethyl)tetrahydro-2H-pyran-3,4,5-triol]	> 10 µM	< 1000 nM	–	–
CCc1ccc(Cc2cc([C@@H]3O[C@H](CO)[C@@H](O)[C@H](O)[C@H]3O)c(COCC(O)CO)cc2Cl)cc1 (stereo partly drawn) [Compound L, (2S,3R,4R,5S,6R)-2-(4-chloro-2-((2,3-dihydroxypropoxy)methyl)-5-(4-ethylbenzyl)phenyl)-6-(hydroxymethyl)tetrahydro-2H-pyran-3,4,5-triol]	> 10 µM	< 1000 nM	–	–
CC#CCOCc1cc(Cl)c(Cc2ccc(OCC)cc2)cc1[C@@H]1O[C@H](CO)[C@@H](O)[C@H](O)[C@H]1O [Compound AY, (2S,3R,4R,5S,6R)-2-(2-((but-2-ynyloxy)methyl)-4-chloro-5-(4-ethoxybenzyl)phenyl)-6-(hydroxymethyl)tetrahydro-2H-pyran-3,4,5-triol]	> 10 µM	< 1000 nM	–	–
CCc1ccc(Cc2cc([C@@H]3O[C@H](CO)[C@@H](O)[C@H](O)[C@H]3O)c(COCCCO)cc2Cl)cc1 [Compound AL, (2S,3R,4R,5S,6R)-2-(4-chloro-5-(4-ethylbenzyl)-2-((3-hydroxypropoxy)methyl)phenyl)-6-(hydroxymethyl)tetrahydro-2H-pyran-3,4,5-triol]	> 10 µM	< 1000 nM	–	–
CCc1ccc(Cc2cc([C@@H]3O[C@H](CO)[C@@H](O)[C@H](O)[C@H]3O)c(COCCOC)cc2Cl)cc1 [Compound S, (2S,3R,4R,5S,6R)-2-(4-chloro-5-(4-ethylbenzyl)-2-((2-methoxyethoxy)methyl)phenyl)-6-(hydroxymethyl)tetrahydro-2H-pyran-3,4,5-triol]	> 10 µM	< 1000 nM	–	–
C=CCOCCc1cc(Cl)c(Cc2ccc(CC)cc2)cc1[C@@H]1O[C@H](CO)[C@@H](O)[C@H](O)[C@H]1O [Compound AD, (2S,3R,4R,5S,6R)-2-(2-(2-(allyloxy)ethyl)-4-chloro-5-(4-ethylbenzyl)phenyl)-6-(hydroxymethyl)tetrahydro-2H-pyran-3,4,5-triol]	> 10 µM	< 1000 nM	–	–
CCc1ccc(Cc2cc([C@@H]3O[C@H](CO)[C@@H](O)[C@H](O)[C@H]3O)c(CCOCC(F)(F)F)cc2Cl)cc1 [Compound AK, (2S,3R,4R,5S,6R)-2-(4-chloro-5-(4-ethylbenzyl)-2-(2-(2,2,2-trifluoroethoxy)ethyl)phenyl)-6-(hydroxymethyl)tetrahydro-2H-pyran-3,4,5-triol]	> 10 µM	< 1000 nM	–	–
CC#CCOCCc1cc(Cl)c(Cc2ccc(CC)cc2)cc1[C@@H]1O[C@H](CO)[C@@H](O)[C@H](O)[C@H]1O [Compound AN, (2S,3R,4R,5S,6R)-2-(2-(2-(but-2-ynyloxy)ethyl)-4-chloro-5-(4-ethylbenzyl)phenyl)-6-(hydroxymethyl)tetrahydro-2H-pyran-3,4,5-triol]	1 to 10 µM	< 1000 nM	–	–
C#CCOCc1cc(Cl)c(Cc2ccc(OCC)cc2)cc1[C@@H]1O[C@H](CO)[C@@H](O)[C@H](O)[C@H]1O [Compound CC, (2S,3R,4R,5S,6R)-2-(4-chloro-5-(4-ethoxybenzyl)-2-((prop-2-ynyloxy)methyl)phenyl)-6-(hydroxymethyl)tetrahydro-2H-pyran-3,4,5-triol]	–	–	> 10 µM	< 1000 nM
CCc1ccc(Cc2cc([C@@H]3O[C@H](CO)[C@@H](O)[C@H](O)[C@H]3O)c(COCC(C)O)cc2Cl)cc1 (stereo partly drawn) [Compound M, (2S,3R,4R,5S,6R)-2-(4-chloro-5-(4-ethylbenzyl)-2-((2-hydroxypropoxy)methyl)phenyl)-6-(hydroxymethyl)tetrahydro-2H-pyran-3,4,5-triol]	> 10 µM	< 1000 nM	–	–
CC#CCOCc1cc(Cl)c(Cc2ccc(OC)cc2)cc1[C@@H]1O[C@H](CO)[C@@H](O)[C@H](O)[C@H]1O [Compound BA, (2S,3R,4R,5S,6R)-2-(2-((but-2-ynyloxy)methyl)-4-chloro-5-(4-methoxybenzyl)phenyl)-6-(hydroxymethyl)tetrahydro-2H-pyran-3,4,5-triol]	–	–	> 10 µM	< 1000 nM
CCc1ccc(Cc2cc([C@@H]3O[C@H](CO)[C@@H](O)[C@H](O)[C@H]3O)c(OCCOC(F)(F)F)cc2Cl)cc1 [Compound BQ, (2S,3R,4R,5S,6R)-2-(4-chloro-5-(4-ethylbenzyl)-2-(2-(trifluoromethoxy)ethoxy)phenyl)-6-(hydroxymethyl)tetrahydro-2H-pyran-3,4,5-triol]	–	–	> 10 µM	< 1000 nM
